We go through 1 compound from patent publication US20220378676A1, “COMPOSITION FOR ENHANCING SKIN ELASTICITY OR IMPROVING SKIN WRINKLES” (AMOREPACIFIC CORPORATION, priority 2021, published 2022).

The subject of experiment [1] is RPE/Smo-GFP primary cilia model cells. Nature of the experiment: Assessment of primary ciliary activation (confocal microscopy). It is filed as cell-based, human. As to conditions: 20 μM, 100 μM, 24 hours, vs control group. How it is done: In order to confirm the primary cilia activation effect of 2-isopropylmalic acid, RPE/Smo-GFP, primary cilia model cells, was prepared. Specifically, human telomerase-immortalized retinal pigmented epithelial (RPE) cells (ATCC Inc.) were transformed with Smo-GFP plasmid (Addgene Inc.) to prepare RPE/Smo-GFP. After treating RPE/Smo-GFP with 2-isopropylmalic acid (Sigma Aldrich Inc.) at different concentrations (20 μM, 100 μM) for 24 hours, the primary cilia production rate and primary cilia length were measured by confocal microscopy (LSM510; Carl Zeiss Microimaging Inc., Thornwood, N.Y.) and the results were shown in FIGS. 2 and 3. The production rate of primary cilia was expressed as the ratio of the number of cells having primary cilia to the total number of cells as a percentage, and the length of primary cilia was a measure of the actual length of all cilia observed under a microscope. As a positive control, SAG (SMO agonist, Calbiochem Inc.), which was a primary cilia production promoting substance, was used.

Experiment [2] has the same test system. Briefly: Assessment of activation of primary cilia inhibited by particulate matter (PM2.5). Type of experiment: cell-based, human. The settings on record: PM2.5 50 ug/ml, 100 μM, 24 hours. As to the method: Particulate matter (PM2.5) was treated in RPE/Smo-GFP, which was the primary cilia model cells of Experimental Example 2. Specifically, particulate matter was directly collected in the air (37.34° N, 127.27° E, 167 m above sea level) using a Teflon filter (Teflon filter, Zefluor, Pall Life Science, Ann Arbor, Mich., USA). Then, this was treated at a concentration of 50 ug/ml in the cell culture medium. Thereafter, after treatment with 100 μM of 2-isopropylmalic acid for 24 hours, the fluorescence of Smo-GFP was visually observed using a fluorescence microscope, and then the production rate and length of primary cilia were measured and shown in FIGS. 4 and 5. The production rate of primary cilia was expressed as the ratio of the number of cells having primary cilia to the total number of cells as a percentage, and the length of primary cilia was a measure of the actual length of all cilia observed under a microscope. As a positive control, SAG (SMO agonist, Calbiochem Inc.), which was a primary cilia production promoting substance, was used.

Another experiment has as its system c-Jun. Nature of the experiment: c-Jun phosphorylation in particulate matter-treated fibroblasts (western blotting). Type of experiment: cell-based. The settings on record: human-derived fibroblasts, PM2.5, 100 μM, 24 hours; effect similar to SP600125. As to the method:
Human-derived fibroblasts (LONZA Inc.) were treated with particulate matter (PM2.5). Then, after treatment with 100 μM of 2-isopropylmalic acid for 24 hours, cell lysate was made, protein was quantified, and the same amount of protein was separated by electrophoresis, and c-Jun, p-c-Jun (phosphorylated c-Jun) was performed by western blotting.
(In general: A western blot detects proteins with antibodies after separation by electrophoresis.)

For experiment [3], the system named is MMP-1. Briefly: MMP-1 expression in particulate matter-treated fibroblasts (western blotting). It is filed as cell-based. The settings on record: human-derived fibroblasts, PM2.5, 100 μM, 24 hours.
The test system of a further experiment is collagen. Briefly: Collagen expression in particulate matter-treated fibroblasts (western blotting). Type of experiment: cell-based. The settings on record: human-derived fibroblasts, PM2.5, 100 μM, 24 hours.
The next experiment has as its system IL-6. Nature of the experiment: IL-6 expression in particulate matter-treated fibroblasts (ELISA). As to conditions: human-derived fibroblasts, PM2.5 50 ug/mL, 100 μM, 24 hours. Type of experiment: cell-based. How it is done: (§1) Human-derived fibroblasts (LONZA Inc.) were transfected with siRNA for IFT88 (siIFT88) or scrambled siRNA (SC), respectively, and then were treated with 50 ug/mL of particulate matter (PM2.5) and 100 μM of 2-isopropylmalic acid for 24 hours. Thereafter, the expression levels of IL-6 and TNF-α, which were inflammatory cytokines, were measured in culture conditions by ELISA assay, and the results were shown in FIG. 9.

The next experiment deals with TNF-α. Nature of the experiment: TNF-α expression in particulate matter-treated fibroblasts (ELISA). Type of experiment: cell-based. As to conditions: human-derived fibroblasts, PM2.5 50 ug/mL, 100 μM, 24 hours. How it is done:
as §1
(ELISA stands for enzyme-linked immunosorbent assay.)

Experiment [4] has as its system MMP-1. Nature of the experiment: Inhibition of MMP-1 expression in an artificial skin model (immunocytochemistry, image analysis). It is filed as cell-based. The settings on record: full-thickness human 3D-skin model, PM2.5 100 ug/mL, 50 uM, 100 uM, 48 hours. As to the method:
The effect of 2-IPMA on the skin was evaluated using a full-thickness human three-dimensional (3-D)-skin model. The full-thickness human 3D-skin model was fabricated in the following way. An artificial dermal layer was formed by loading a mixture of collagen (Nutragen, Advanced Biomatrix Inc.) and fibroblasts (NDFn, ThermoFisher Inc.) in a volume of 400 ul in Transwell® (Corning Inc.). Thereafter, a fibroblast culture medium (M106, Gibco Inc.) was put on the artificial dermal layer and cultured for 7 days to stabilize the artificial dermal layer. Next, keratinocytes (HEKn, ThermoFisher Inc.) were seeded on the artificial dermal layer, and cultured in keratinocyte culture medium (EpiLife, Gibco Inc.) for 1 day, followed by epidermal layer production medium (CnT-3DPR, CellnTEC) for 1 day, and then cultured in the same epidermal layer production medium for 10 days in a state of exposure to air to form an artificial epidermal layer, thereby constructing a full-thickness human 3D-skin model. 100 ug/mL of particulate matter (PM2.5) and 2-isopropylmalic acid (50 uM, 100 uM) were treated in the full-thickness human three-dimensional skin model constructed in this way for 48 hours. Thereafter, hematoxylin-eosin (H&E) staining and MMP-1 immunocytochemistry were performed, and the results were shown in FIG. 10.

On to `CC(C)C(O)(CC(=O)O)C(=O)O` (stereo not shown) [2-isopropylmalic acid], for which, in experiment [1], the “length of primary cilia” value was “increased” and the “proportion of cells with primary cilia (production rate of primary cilia)” value is given as “statistically significantly higher than that of the control group”. In addition, in experiment [2], the “length of primary cilia” value is “getting longer” and the “production of primary cilia suppressed by particulate matter” value was “restored”. Further, the “phosphorylation of c-Jun by particulate matter” value in the experiment with c-Jun is “suppressed”. Besides, in the experiment with MMP-1 [3], the MMP-1 expression result is given as “decreased”. Further, the collagen expression entry in the experiment on collagen is “increased”. Also, the “expression of IL-6 increased by particulate matter” value in the experiment on IL-6 was “reduced”. In addition, the “expression of TNF-α increased by particulate matter” value in the experiment with TNF-α is on record as “reduced”. Also, the “expression of MMP-1 increased by the particulate matter” value in the experiment with MMP-1 [4] is reported as “decreased”.
